According to patent publication US20230149537A1, “VACCINES, ADJUVANTS, AND METHODS OF GENERATING AN IMMUNE RESPONSE” (priority 2020, published 2023):

What was measured:
T cell = test system: T cell; design: species or system C57BL/6 mice; conditions: mouse, in vivo, ip
SARS-CoV-2 Spike [1] = test system: SARS-CoV-2 Spike; design: species or system  mice; conditions: mouse, in vivo
SARS-CoV-2 Spike [2] = test system: SARS-CoV-2 Spike; design: species or system C57BL/6 mice; conditions: mouse, in vivo, ip

CCCCCCCCCCCC(=O)CC(=O)N[C@H](COCCCCCCCCCC)COP(=O)([O-])OCCNC(=O)NCCOP(=O)([O-])OC[C@@H](COCC[C@@H](CCCCCCC)OC(=O)CCCCCCCCCCC)NC(=O)CC(=O)CCCCCCCCCCC.[Na+].[Na+] [Group E6020]
Th1-type T cell responses (T cell): significantly enhanced Th1-type T cell responses | IgG1 and IgG2 Ab binding titers (SARS-CoV-2 Spike [1]): increase in IgG2 production | IgG profile (IgG2/IgG1) (SARS-CoV-2 Spike [2]): significant higher IgG2 than with Alum alone
